Data taken from ChEMBL document CHEMBL3991601, “The target landscape of clinical kinase drugs” (Science, 2017).
Where a name gives a salt, the structure may show the parent alone. Calls of active or inactive are those of the source. Rule as the data show it, for most assays here: actives have a measured Kd and inactives only a lower limit.

Assays:
[1] = target: Serine/threonine-protein kinase MRCK beta (Homo sapiens, UniProt Q9Y5S2)
[2] = target: Cyclin-dependent kinase 7 (Homo sapiens, UniProt P50613)
[3] = target: Dual specificity tyrosine-phosphorylation-regulated kinase 1A (Homo sapiens, UniProt Q13627)
Ephrin type-A receptor 5 = Ephrin type-A receptor 5 (Homo sapiens, UniProt P54756)
[4] = target: Interleukin-1 receptor-associated kinase 1 (Homo sapiens, UniProt P51617)
[5] = target: Mitogen-activated protein kinase 14 (Homo sapiens, UniProt Q16539)
[6] = target: T1, Bifunctional phosphoribosylaminoimidazole carboxylase/phosphoribosylaminoimidazole succinocarboxamide synthetase (Homo sapiens, UniProt P22234)
T1 sequence (P22234 whole entry): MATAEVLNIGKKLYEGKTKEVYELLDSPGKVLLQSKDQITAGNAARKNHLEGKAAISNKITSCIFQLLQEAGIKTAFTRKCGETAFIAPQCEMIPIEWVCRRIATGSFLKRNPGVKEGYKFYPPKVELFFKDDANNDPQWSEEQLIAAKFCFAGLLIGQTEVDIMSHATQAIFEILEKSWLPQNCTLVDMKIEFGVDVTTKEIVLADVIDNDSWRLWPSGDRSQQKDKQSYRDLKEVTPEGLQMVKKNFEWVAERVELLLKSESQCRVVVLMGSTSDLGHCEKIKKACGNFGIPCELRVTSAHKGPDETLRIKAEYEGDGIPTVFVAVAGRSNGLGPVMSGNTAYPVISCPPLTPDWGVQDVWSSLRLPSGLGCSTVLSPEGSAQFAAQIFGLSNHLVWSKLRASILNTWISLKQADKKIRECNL

[7] = target: T2, Phosphorylase b kinase gamma catalytic chain, liver/testis isoform (Homo sapiens, UniProt P15735)
T2 sequence (P15735 whole entry): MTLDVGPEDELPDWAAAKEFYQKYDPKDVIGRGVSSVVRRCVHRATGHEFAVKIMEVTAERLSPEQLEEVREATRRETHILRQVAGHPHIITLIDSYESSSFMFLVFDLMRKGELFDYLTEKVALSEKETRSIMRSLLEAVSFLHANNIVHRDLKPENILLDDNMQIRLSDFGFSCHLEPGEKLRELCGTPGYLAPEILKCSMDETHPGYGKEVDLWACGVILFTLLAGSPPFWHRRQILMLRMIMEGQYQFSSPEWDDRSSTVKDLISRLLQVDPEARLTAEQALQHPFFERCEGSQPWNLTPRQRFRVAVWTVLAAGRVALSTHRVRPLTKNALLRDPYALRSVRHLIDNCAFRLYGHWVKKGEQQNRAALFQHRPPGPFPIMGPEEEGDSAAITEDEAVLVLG

[8] = target: Ribosomal protein S6 kinase alpha-5 (Homo sapiens, UniProt O75582)
[9] = target: T3, Structural maintenance of chromosomes protein 1A (Homo sapiens, UniProt Q14683)
T3 sequence (Q14683 whole entry): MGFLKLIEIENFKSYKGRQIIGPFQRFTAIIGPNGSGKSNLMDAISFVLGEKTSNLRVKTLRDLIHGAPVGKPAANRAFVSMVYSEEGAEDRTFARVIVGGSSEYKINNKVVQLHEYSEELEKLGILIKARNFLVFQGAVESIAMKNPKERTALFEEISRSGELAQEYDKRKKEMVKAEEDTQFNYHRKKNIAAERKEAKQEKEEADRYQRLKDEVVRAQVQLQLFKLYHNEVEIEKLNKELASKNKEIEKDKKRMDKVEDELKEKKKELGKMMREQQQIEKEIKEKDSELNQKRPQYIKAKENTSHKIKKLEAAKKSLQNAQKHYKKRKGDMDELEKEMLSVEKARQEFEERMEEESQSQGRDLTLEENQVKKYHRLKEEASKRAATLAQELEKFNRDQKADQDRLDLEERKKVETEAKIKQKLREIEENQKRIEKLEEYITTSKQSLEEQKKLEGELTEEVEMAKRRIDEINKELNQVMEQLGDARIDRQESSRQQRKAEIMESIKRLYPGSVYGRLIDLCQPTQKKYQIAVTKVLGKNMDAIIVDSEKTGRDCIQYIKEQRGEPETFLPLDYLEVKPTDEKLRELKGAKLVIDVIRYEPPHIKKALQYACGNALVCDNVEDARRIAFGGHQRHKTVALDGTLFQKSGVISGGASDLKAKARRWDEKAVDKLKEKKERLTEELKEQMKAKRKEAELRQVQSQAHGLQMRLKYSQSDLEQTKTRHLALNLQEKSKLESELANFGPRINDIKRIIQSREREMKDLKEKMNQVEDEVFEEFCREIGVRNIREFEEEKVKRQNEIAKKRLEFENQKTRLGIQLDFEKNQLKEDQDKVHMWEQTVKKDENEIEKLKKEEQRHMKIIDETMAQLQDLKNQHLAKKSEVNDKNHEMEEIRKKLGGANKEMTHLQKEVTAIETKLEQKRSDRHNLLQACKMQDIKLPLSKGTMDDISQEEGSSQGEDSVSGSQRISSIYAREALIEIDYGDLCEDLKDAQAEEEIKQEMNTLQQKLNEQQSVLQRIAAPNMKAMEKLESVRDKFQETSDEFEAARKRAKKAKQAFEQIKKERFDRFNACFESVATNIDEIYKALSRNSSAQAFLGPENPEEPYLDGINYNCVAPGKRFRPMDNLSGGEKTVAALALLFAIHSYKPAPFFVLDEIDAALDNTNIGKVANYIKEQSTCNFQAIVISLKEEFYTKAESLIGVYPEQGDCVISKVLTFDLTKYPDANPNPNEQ

[10] = target: T4, Serine/threonine-protein kinase ULK3 (Homo sapiens, UniProt Q6PHR2)
T4 sequence (Q6PHR2 whole entry): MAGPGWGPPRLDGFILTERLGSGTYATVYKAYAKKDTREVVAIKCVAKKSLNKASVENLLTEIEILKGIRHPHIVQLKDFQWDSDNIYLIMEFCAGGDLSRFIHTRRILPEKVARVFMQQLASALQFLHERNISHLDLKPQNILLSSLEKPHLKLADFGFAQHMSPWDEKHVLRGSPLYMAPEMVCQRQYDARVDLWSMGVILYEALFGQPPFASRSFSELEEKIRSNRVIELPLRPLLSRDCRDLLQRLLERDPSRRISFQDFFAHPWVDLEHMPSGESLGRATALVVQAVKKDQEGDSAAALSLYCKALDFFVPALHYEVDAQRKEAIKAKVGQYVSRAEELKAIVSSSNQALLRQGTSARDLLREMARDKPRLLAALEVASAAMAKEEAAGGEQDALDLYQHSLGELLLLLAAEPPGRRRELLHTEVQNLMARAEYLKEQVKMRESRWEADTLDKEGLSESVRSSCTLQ
Also: in the data inactive means no Kd found up to 30 µM.

Serine/threonine-protein kinase MRCK beta, sequence (Q9Y5S2 whole entry): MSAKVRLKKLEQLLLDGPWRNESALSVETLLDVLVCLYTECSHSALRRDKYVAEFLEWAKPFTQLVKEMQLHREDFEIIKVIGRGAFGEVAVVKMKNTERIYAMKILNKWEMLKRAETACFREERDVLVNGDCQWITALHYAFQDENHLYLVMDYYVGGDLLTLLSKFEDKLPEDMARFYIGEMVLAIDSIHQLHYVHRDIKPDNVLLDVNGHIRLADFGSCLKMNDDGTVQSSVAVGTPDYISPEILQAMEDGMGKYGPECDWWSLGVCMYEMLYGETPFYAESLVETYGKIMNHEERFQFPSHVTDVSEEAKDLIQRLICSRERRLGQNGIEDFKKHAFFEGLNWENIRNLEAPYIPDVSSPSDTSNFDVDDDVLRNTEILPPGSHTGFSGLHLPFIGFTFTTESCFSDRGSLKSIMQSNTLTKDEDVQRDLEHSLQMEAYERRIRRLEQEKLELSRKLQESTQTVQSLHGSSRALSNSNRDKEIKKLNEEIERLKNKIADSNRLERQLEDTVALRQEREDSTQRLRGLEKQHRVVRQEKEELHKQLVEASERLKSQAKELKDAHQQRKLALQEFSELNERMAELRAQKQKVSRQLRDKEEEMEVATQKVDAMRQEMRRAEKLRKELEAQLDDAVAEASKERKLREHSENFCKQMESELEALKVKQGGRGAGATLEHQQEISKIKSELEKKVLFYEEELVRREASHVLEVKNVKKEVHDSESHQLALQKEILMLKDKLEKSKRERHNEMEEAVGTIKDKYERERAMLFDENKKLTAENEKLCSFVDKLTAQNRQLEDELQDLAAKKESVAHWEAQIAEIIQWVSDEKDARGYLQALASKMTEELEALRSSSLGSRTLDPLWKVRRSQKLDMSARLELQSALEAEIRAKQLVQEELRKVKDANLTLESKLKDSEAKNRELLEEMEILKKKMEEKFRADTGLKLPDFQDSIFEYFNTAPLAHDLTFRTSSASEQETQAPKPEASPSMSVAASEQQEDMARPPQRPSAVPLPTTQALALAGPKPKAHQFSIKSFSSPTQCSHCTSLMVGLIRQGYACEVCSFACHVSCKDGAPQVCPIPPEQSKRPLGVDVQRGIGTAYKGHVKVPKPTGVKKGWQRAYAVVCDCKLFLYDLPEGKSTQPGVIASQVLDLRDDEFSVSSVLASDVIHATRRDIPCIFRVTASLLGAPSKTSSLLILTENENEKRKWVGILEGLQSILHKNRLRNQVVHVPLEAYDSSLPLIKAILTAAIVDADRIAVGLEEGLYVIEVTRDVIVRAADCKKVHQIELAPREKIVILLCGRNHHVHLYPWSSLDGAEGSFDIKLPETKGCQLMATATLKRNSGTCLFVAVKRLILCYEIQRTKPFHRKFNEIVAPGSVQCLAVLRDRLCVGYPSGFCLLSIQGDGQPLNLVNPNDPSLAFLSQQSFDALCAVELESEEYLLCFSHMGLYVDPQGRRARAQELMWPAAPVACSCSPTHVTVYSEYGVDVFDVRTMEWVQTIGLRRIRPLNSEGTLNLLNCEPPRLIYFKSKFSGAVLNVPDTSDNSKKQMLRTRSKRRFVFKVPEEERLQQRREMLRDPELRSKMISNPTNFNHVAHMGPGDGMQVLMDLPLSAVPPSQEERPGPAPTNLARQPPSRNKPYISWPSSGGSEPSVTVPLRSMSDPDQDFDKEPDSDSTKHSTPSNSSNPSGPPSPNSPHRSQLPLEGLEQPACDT
Mitogen-activated protein kinase 14, sequence (Q16539 whole entry): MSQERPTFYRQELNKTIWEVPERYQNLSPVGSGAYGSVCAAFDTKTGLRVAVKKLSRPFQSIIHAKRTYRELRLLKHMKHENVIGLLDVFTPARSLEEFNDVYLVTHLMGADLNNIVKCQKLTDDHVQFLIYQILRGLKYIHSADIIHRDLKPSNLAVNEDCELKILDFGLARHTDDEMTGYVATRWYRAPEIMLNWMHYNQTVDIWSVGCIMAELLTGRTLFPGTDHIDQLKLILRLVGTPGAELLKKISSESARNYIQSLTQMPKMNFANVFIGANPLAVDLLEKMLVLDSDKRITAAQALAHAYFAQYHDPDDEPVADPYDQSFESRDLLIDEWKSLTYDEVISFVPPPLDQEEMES
Interleukin-1 receptor-associated kinase 1, sequence (P51617 whole entry): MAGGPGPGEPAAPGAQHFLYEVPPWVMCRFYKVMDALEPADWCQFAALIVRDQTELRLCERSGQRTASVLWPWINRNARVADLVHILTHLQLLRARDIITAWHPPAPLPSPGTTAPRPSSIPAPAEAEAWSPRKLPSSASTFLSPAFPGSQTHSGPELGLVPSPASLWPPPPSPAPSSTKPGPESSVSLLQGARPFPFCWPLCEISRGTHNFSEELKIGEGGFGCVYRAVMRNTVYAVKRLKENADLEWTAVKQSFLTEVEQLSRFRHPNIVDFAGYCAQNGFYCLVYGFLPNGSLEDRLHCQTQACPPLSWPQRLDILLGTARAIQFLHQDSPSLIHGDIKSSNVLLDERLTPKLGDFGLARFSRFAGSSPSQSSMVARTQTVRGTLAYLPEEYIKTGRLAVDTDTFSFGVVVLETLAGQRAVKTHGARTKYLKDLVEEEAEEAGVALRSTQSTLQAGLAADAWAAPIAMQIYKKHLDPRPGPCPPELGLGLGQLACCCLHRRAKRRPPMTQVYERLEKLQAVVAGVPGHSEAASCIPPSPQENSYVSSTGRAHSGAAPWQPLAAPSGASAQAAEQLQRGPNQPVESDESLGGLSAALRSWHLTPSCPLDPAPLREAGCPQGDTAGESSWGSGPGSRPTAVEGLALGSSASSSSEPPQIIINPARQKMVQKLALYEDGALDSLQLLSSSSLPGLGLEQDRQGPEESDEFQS
Ephrin type-A receptor 5, sequence (P54756 whole entry): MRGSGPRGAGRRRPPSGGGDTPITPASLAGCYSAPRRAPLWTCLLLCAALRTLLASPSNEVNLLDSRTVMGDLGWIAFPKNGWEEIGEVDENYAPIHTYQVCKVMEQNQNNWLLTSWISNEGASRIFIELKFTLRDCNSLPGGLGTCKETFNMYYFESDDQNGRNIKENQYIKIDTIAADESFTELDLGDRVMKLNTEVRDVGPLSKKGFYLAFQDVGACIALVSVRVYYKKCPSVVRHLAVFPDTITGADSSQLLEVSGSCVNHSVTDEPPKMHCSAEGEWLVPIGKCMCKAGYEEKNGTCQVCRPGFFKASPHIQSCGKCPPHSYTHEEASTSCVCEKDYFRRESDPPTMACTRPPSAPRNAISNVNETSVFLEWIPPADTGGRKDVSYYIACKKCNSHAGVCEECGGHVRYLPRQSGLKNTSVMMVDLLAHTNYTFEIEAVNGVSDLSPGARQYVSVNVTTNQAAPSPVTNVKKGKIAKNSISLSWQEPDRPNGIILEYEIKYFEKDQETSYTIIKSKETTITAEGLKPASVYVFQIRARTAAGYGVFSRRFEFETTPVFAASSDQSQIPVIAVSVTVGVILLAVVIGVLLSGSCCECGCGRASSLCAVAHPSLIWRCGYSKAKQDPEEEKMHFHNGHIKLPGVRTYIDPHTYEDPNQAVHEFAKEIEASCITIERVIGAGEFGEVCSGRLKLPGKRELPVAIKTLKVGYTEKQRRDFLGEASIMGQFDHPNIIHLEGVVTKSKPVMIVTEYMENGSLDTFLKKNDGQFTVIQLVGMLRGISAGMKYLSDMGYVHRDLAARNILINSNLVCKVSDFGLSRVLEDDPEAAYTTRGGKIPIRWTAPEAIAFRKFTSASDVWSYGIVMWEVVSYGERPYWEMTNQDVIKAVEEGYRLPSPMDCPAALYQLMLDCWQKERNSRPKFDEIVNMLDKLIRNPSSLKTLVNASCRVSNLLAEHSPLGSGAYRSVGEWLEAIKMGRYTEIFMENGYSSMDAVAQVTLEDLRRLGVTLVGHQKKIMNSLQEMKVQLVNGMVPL
Ribosomal protein S6 kinase alpha-5, sequence (O75582 whole entry): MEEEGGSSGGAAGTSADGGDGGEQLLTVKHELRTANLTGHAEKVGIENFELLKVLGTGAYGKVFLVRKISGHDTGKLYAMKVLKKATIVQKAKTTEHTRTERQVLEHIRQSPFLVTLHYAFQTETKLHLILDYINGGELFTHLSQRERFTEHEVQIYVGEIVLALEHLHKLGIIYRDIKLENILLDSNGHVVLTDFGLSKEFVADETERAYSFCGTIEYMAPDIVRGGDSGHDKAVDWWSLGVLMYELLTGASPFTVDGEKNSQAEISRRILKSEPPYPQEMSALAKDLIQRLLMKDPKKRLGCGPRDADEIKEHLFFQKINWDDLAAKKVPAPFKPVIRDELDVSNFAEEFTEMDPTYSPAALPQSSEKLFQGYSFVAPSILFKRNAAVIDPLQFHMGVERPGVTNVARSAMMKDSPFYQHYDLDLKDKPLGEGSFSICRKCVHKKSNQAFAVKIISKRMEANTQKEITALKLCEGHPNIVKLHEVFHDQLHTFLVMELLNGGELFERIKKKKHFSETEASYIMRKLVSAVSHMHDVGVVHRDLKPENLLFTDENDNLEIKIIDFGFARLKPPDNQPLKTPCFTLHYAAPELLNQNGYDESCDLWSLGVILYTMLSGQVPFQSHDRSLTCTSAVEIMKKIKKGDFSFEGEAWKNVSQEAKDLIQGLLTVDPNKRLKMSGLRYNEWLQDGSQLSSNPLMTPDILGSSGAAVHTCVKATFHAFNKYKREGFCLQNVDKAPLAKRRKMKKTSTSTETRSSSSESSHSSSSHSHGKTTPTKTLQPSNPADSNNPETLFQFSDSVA
Cyclin-dependent kinase 7, sequence (P50613 whole entry): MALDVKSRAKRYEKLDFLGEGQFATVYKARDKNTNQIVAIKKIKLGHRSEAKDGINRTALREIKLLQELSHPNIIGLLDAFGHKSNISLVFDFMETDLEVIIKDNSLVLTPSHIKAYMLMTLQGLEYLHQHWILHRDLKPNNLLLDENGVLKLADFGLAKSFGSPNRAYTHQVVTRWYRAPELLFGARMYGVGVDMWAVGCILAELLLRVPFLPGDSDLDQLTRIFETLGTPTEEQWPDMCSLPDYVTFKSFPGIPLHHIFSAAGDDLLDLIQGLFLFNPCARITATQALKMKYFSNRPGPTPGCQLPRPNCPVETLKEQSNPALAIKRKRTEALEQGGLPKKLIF

Structure (SMILES)	Kd [1]	Kd [2]	Kd [3]	Kd (Ephrin type-A receptor 5)	Kd [4]	Kd [5]	Kd [6]	Kd [7]	Kd [8]	Kd [9]	Kd [10]
Cn1cnc2c(F)c(Nc3ccc(Br)cc3F)c(C(=O)NOCCO)cc21 [BINIMETINIB]	> 30 µM (inactive)	> 30 µM (inactive)	> 30 µM (inactive)	> 30 µM (inactive)	> 30 µM (inactive)	> 30 µM (inactive)	> 30 µM (inactive)	> 30 µM (inactive)	> 30 µM (inactive)	> 30 µM (inactive)	> 30 µM (inactive)
CCn1c(C(=O)N(C2CC2)C2CC2)cc2c3c(ncn3C)c(Nc3cc(C)n(C)n3)nc21 [BMS-911543]	> 30 µM (inactive)	> 30 µM (inactive)	> 30 µM (inactive)	> 30 µM (inactive)	> 30 µM (inactive)	> 30 µM (inactive)	> 30 µM (inactive)	> 30 µM (inactive)	> 30 µM (inactive)	> 30 µM (inactive)	> 30 µM (inactive)
Cc1cc(Nc2ncc(Cl)c(Nc3ccccc3S(=O)(=O)C(C)C)n2)c(OC(C)C)cc1C1CCNCC1 [CERITINIB]	> 30 µM (inactive)	> 30 µM (inactive)	> 30 µM (inactive)	> 30 µM (inactive)	> 30 µM (inactive)	> 30 µM (inactive)	> 30 µM (inactive)	> 30 µM (inactive)	> 30 µM (inactive)	> 30 µM (inactive)	> 30 µM (inactive)
COc1c(OCCCN2CCOCC2)ccc2c1N=C(NC(=O)c1cnc(N)nc1)N1CCN=C21 [COPANLISIB]	> 30 µM (inactive)	> 30 µM (inactive)	> 30 µM (inactive)	> 30 µM (inactive)	> 30 µM (inactive)	> 30 µM (inactive)	> 30 µM (inactive)	> 30 µM (inactive)	> 30 µM (inactive)	> 30 µM (inactive)	> 30 µM (inactive)
COCC(=O)NC/C=C/c1ccc2ncnc(Nc3ccc(Oc4ccc(C)nc4)c(C)c3)c2c1 [CP-724714]	> 30 µM (inactive)	> 30 µM (inactive)	> 30 µM (inactive)	> 30 µM (inactive)	> 30 µM (inactive)	> 30 µM (inactive)	> 30 µM (inactive)	> 30 µM (inactive)	> 30 µM (inactive)	> 30 µM (inactive)	> 30 µM (inactive)
CCS(=O)(=O)N1CCN(c2ccc(Nc3ncc(C(N)=O)c(NC4CC4)n3)cc2)CC1 [Cerdulatinib Hydrochloride]	> 30 µM (inactive)	> 30 µM (inactive)	> 30 µM (inactive)	> 30 µM (inactive)	> 30 µM (inactive)	> 30 µM (inactive)	> 30 µM (inactive)	> 30 µM (inactive)	> 30 µM (inactive)	> 30 µM (inactive)	0.655 µM (active)
Cc1nc2cc(-n3ncc(C(=O)c4cc5ccccc5[nH]4)c3N)ccc2[nH]1 [FGFR INHIBITOR DEBIO 1347]	> 30 µM (inactive)	> 30 µM (inactive)	> 30 µM (inactive)	> 30 µM (inactive)	> 30 µM (inactive)	> 30 µM (inactive)	> 30 µM (inactive)	> 30 µM (inactive)	> 30 µM (inactive)	> 30 µM (inactive)	> 30 µM (inactive)
O=C(Nc1nc2cccc(-c3ccc(CN4CCS(=O)(=O)CC4)cc3)n2n1)C1CC1 [FILGOTINIB]	> 30 µM (inactive)	> 30 µM (inactive)	> 30 µM (inactive)	> 30 µM (inactive)	4.71 µM (active)	> 30 µM (inactive)	> 30 µM (inactive)	> 30 µM (inactive)	> 30 µM (inactive)	> 30 µM (inactive)	> 30 µM (inactive)
Cc1cccc(-c2nn3c(c2-c2ccnc4ccc(C(N)=O)cc24)CCC3)n1 [GALUNISERTIB]	> 30 µM (inactive)	> 30 µM (inactive)	> 30 µM (inactive)	> 30 µM (inactive)	> 30 µM (inactive)	> 30 µM (inactive)	> 30 µM (inactive)	> 30 µM (inactive)	> 30 µM (inactive)	> 30 µM (inactive)	> 30 µM (inactive)

Now from value to molecule:

Kd [1]	Kd [2]	Kd [3]	Kd (Ephrin type-A receptor 5)	Kd [4]	Kd [5]	Kd [6]	Kd [7]	Kd [8]	Kd [9]	Kd [10]	Structure (SMILES)
> 30 µM (inactive)	> 30 µM (inactive)	> 30 µM (inactive)	0.401 µM	> 30 µM (inactive)	0.566 µM (active)	> 30 µM (inactive)	> 30 µM (inactive)	> 30 µM (inactive)	> 30 µM (inactive)	> 30 µM (inactive)	COc1cc2ncnc(Oc3cccc(NC(=O)Nc4cc(C(C)(C)C(F)(F)F)on4)c3)c2cc1OC [CEP-32496]
> 30 µM (inactive)	> 30 µM (inactive)	> 30 µM (inactive)	> 30 µM (inactive)	> 30 µM (inactive)	8.5 µM (active)	> 30 µM (inactive)	> 30 µM (inactive)	> 30 µM (inactive)	> 30 µM (inactive)	> 30 µM (inactive)	CCn1cc(-c2ccnc3[nH]c(-c4cccc(CN(C)C)c4)cc23)c(-c2ccc(NC(=O)N(C)C)cc2)n1 [GSK-1070916]
> 30 µM (inactive)	> 30 µM (inactive)	> 30 µM (inactive)	> 30 µM (inactive)	> 30 µM (inactive)	> 30 µM (inactive)	> 30 µM (inactive)	> 30 µM (inactive)	> 30 µM (inactive)	> 30 µM (inactive)	> 30 µM (inactive)	COc1ccc(S(=O)(=O)N(C(C)=O)c2ccccc2/C=C/c2cc[n+]([O-])cc2)cc1 [HMN-214]
